Assay results published in PubChem BioAssay (NCI).
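Cells were grown in 96-well plates and exposed to each compound for 48 hours at five concentrations; endpoints were interpolated linearly between bracketing concentrations, or set to the highest concentration if not reached. GI50 is the concentration that inhibits growth by half. TGI: concentration producing complete growth inhibition.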

Tests used:
Assay in all cases: DTP human tumour cell line panel, 48 h
MALME-3M melanoma = tested on: MALME-3M melanoma
TK-10 renal = tested on: TK-10 renal
HOP-62 NSCLC = tested on: HOP-62 NSCLC
SK-MEL-5 melanoma = tested on: SK-MEL-5 melanoma
A498 renal = tested on: A498 renal
HS 578T breast = tested on: HS 578T breast
RPMI-8226 leukemia = tested on: RPMI-8226 leukemia
UACC-62 melanoma = tested on: UACC-62 melanoma
HCC-2998 colon = tested on: HCC-2998 colon
HOP-92 NSCLC = tested on: HOP-92 NSCLC
HT29 colon = tested on: HT29 colon
PC-3 prostate = tested on: PC-3 prostate
MCF7 breast = tested on: MCF7 breast
OVCAR-5 ovarian = tested on: OVCAR-5 ovarian
ACHN renal = tested on: ACHN renal
HL-60(TB) leukemia = tested on: HL-60(TB) leukemia
OVCAR-4 ovarian = tested on: OVCAR-4 ovarian
NCI-H226 lung = tested on: NCI-H226 lung
T-47D breast = tested on: T-47D breast
KM12 colon = tested on: KM12 colon
HCT-15 colon = tested on: HCT-15 colon
OVCAR-3 ovarian = tested on: OVCAR-3 ovarian
SNB-75 CNS = tested on: SNB-75 CNS
NCI-H23 lung = tested on: NCI-H23 lung
OVCAR-8 ovarian = tested on: OVCAR-8 ovarian
MDA-MB-435 = tested on: MDA-MB-435
CCRF-CEM leukemia = tested on: CCRF-CEM leukemia
UO-31 renal = tested on: UO-31 renal
EKVX NSCLC = tested on: EKVX NSCLC
SK-OV-3 ovarian = tested on: SK-OV-3 ovarian
SK-MEL-28 melanoma = tested on: SK-MEL-28 melanoma
IGROV1 ovarian = tested on: IGROV1 ovarian
NCI-H522 lung = tested on: NCI-H522 lung
SN12C renal = tested on: SN12C renal
786-0 renal = tested on: 786-0 renal
SNB-19 CNS = tested on: SNB-19 CNS
U251 CNS = tested on: U251 CNS
SF-539 CNS = tested on: SF-539 CNS
SR leukemia = tested on: SR leukemia
SF-268 CNS = tested on: SF-268 CNS
A549 NSCLC = tested on: A549 NSCLC
MOLT-4 leukemia = tested on: MOLT-4 leukemia
CAKI-1 renal = tested on: CAKI-1 renal
NCI/ADR-RES ovarian = tested on: NCI/ADR-RES ovarian
RXF 393 renal = tested on: RXF 393 renal
MDA-MB-231 breast = tested on: MDA-MB-231 breast
M14 melanoma = tested on: M14 melanoma
SW-620 colon = tested on: SW-620 colon
COLO 205 colon = tested on: COLO 205 colon
DU-145 prostate = tested on: DU-145 prostate
UACC-257 melanoma = tested on: UACC-257 melanoma
SF-295 CNS = tested on: SF-295 CNS
NCI-H460 lung = tested on: NCI-H460 lung
HCT-116 colon = tested on: HCT-116 colon
LOX IMVI melanoma = tested on: LOX IMVI melanoma
K-562 leukemia = tested on: K-562 leukemia
SK-MEL-2 melanoma = tested on: SK-MEL-2 melanoma
BT-549 breast = tested on: BT-549 breast

For Cc1nc2cnc(N)c(C#Cc3cncc(C(=O)Nc4ccc(Cl)c(C(F)(F)F)c4)c3)c2nc1C, which GI50 (MALME-3M melanoma) is on record?
Its GI50 is 0.118 µM.

And the TGI (MALME-3M melanoma)?
The TGI was 0.825 µM.

And the GI50 (TK-10 renal)?
Its GI50 is 5.32 µM.

And the TGI (TK-10 renal)?
Its TGI is 18.9 µM.

And the GI50 (HOP-62 NSCLC)?
Its GI50 is 1.87 µM.

What about the TGI (HOP-62 NSCLC) of the same compound?
Its TGI is 18.7 µM.

And the GI50 (SK-MEL-5 melanoma)?
The GI50 was 1.08 µM.

And the TGI (SK-MEL-5 melanoma)?
The TGI was 11.1 µM.

And the GI50 (A498 renal)?
The GI50 was 3.1 µM.

What about the TGI (A498 renal) of the same compound?
The TGI was 15.4 µM.

What about the GI50 (HS 578T breast) of the same compound?
The GI50 was 1.64 µM.

And the TGI (HS 578T breast)?
The TGI was 7.19 µM.

And the GI50 (RPMI-8226 leukemia)?
The GI50 was 3.32 µM.

What about the TGI (RPMI-8226 leukemia) of the same compound?
Its TGI is 22.5 µM.

And the GI50 (UACC-62 melanoma)?
The GI50 was 0.264 µM.

What about the TGI (UACC-62 melanoma) of the same compound?
Its TGI is 2.15 µM.

And the GI50 (HCC-2998 colon)?
The GI50 was 0.771 µM.

What about the TGI (HCC-2998 colon) of the same compound?
The TGI was 4.35 µM.

And the GI50 (HOP-92 NSCLC)?
Its GI50 is 0.196 µM.

What about the TGI (HOP-92 NSCLC) of the same compound?
The TGI was 1.78 µM.

What about the GI50 (HT29 colon) of the same compound?
The GI50 was 0.346 µM.

What about the TGI (HT29 colon) of the same compound?
Its TGI is 2.11 µM.

And the GI50 (PC-3 prostate)?
The GI50 was 3.9 µM.

And the TGI (PC-3 prostate)?
Its TGI is 18.7 µM.

What about the GI50 (MCF7 breast) of the same compound?
The GI50 was 1.91 µM.

What about the TGI (MCF7 breast) of the same compound?
Its TGI is 6.84 µM.

And the GI50 (OVCAR-5 ovarian)?
Its GI50 is 0.383 µM.

What about the TGI (OVCAR-5 ovarian) of the same compound?
Its TGI is 11.3 µM.

What about the GI50 (ACHN renal) of the same compound?
Its GI50 is 1.89 µM.

What about the TGI (ACHN renal) of the same compound?
The TGI was 12.1 µM.

What about the GI50 (HL-60(TB) leukemia) of the same compound?
Its GI50 is 0.0754 µM.

What about the TGI (HL-60(TB) leukemia) of the same compound?
The TGI was 4.12 µM.

What about the GI50 (OVCAR-4 ovarian) of the same compound?
The GI50 was 4.01 µM.

And the TGI (OVCAR-4 ovarian)?
Its TGI is 17 µM.

What about the GI50 (NCI-H226 lung) of the same compound?
The GI50 was 0.555 µM.

And the TGI (NCI-H226 lung)?
The TGI was 9.79 µM.

What about the GI50 (T-47D breast) of the same compound?
Its GI50 is 5.02 µM.

And the TGI (T-47D breast)?
Its TGI is 27.6 µM.

And the TGI (KM12 colon)?
The TGI was 3.53 µM.

And the GI50 (HCT-15 colon)?
Its GI50 is 1.55 µM.

What about the TGI (HCT-15 colon) of the same compound?
Its TGI is 4.03 µM.

And the GI50 (OVCAR-3 ovarian)?
Its GI50 is 3.33 µM.

And the TGI (OVCAR-3 ovarian)?
The TGI was 12.7 µM.

And the GI50 (SNB-75 CNS)?
Its GI50 is 2.43 µM.

What about the TGI (SNB-75 CNS) of the same compound?
The TGI was 11.8 µM.

What about the GI50 (NCI-H23 lung) of the same compound?
Its GI50 is 0.579 µM.

What about the TGI (NCI-H23 lung) of the same compound?
Its TGI is 5.4 µM.

And the GI50 (OVCAR-8 ovarian)?
The GI50 was 4.45 µM.

And the TGI (OVCAR-8 ovarian)?
The TGI was 24.5 µM.

And the GI50 (MDA-MB-435)?
Its GI50 is 0.442 µM.

What about the TGI (MDA-MB-435) of the same compound?
Its TGI is 4.06 µM.

And the GI50 (CCRF-CEM leukemia)?
Its GI50 is 3.75 µM.

What about the TGI (CCRF-CEM leukemia) of the same compound?
Its TGI is 52.8 µM.

And the GI50 (UO-31 renal)?
Its GI50 is 0.381 µM.

What about the TGI (UO-31 renal) of the same compound?
Its TGI is 10.9 µM.

And the GI50 (EKVX NSCLC)?
Its GI50 is 2.48 µM.

And the TGI (EKVX NSCLC)?
The TGI was 19.1 µM.

What about the GI50 (SK-OV-3 ovarian) of the same compound?
The GI50 was 9.11 µM.

What about the TGI (SK-OV-3 ovarian) of the same compound?
The TGI was 23.3 µM.

And the GI50 (SK-MEL-28 melanoma)?
The GI50 was 0.264 µM.

What about the TGI (SK-MEL-28 melanoma) of the same compound?
The TGI was 1.68 µM.

What about the GI50 (IGROV1 ovarian) of the same compound?
The GI50 was 0.653 µM.

And the TGI (IGROV1 ovarian)?
The TGI was 12.6 µM.

And the GI50 (NCI-H522 lung)?
The GI50 was 1.8 µM.

What about the TGI (NCI-H522 lung) of the same compound?
Its TGI is 14.8 µM.

And the GI50 (SN12C renal)?
Its GI50 is 1.16 µM.

And the TGI (SN12C renal)?
The TGI was 4 µM.

What about the GI50 (786-0 renal) of the same compound?
Its GI50 is 3.41 µM.

What about the TGI (786-0 renal) of the same compound?
Its TGI is 17.9 µM.

What about the GI50 (SNB-19 CNS) of the same compound?
The GI50 was 6.53 µM.

What about the TGI (SNB-19 CNS) of the same compound?
The TGI was 20.7 µM.

What about the GI50 (U251 CNS) of the same compound?
Its GI50 is 2.88 µM.

What about the TGI (U251 CNS) of the same compound?
Its TGI is 16.9 µM.

What about the GI50 (SF-539 CNS) of the same compound?
Its GI50 is 0.518 µM.

And the TGI (SF-539 CNS)?
Its TGI is 10.2 µM.

And the GI50 (SR leukemia)?
The GI50 was 1.71 µM.

What about the TGI (SR leukemia) of the same compound?
The TGI was 5.02 µM.

And the GI50 (SF-268 CNS)?
The GI50 was 2.46 µM.

And the TGI (SF-268 CNS)?
Its TGI is 15.6 µM.

And the GI50 (A549 NSCLC)?
The GI50 was 3.27 µM.

And the TGI (A549 NSCLC)?
Its TGI is 22.6 µM.

What about the GI50 (MOLT-4 leukemia) of the same compound?
The GI50 was 1.68 µM.

And the TGI (MOLT-4 leukemia)?
The TGI was 5.82 µM.

What about the GI50 (CAKI-1 renal) of the same compound?
The GI50 was 2.26 µM.

And the TGI (CAKI-1 renal)?
The TGI was 15.6 µM.

What about the GI50 (NCI/ADR-RES ovarian) of the same compound?
The GI50 was 2.95 µM.

What about the TGI (NCI/ADR-RES ovarian) of the same compound?
Its TGI is 19.1 µM.

What about the GI50 (RXF 393 renal) of the same compound?
Its GI50 is 0.799 µM.

What about the TGI (RXF 393 renal) of the same compound?
Its TGI is 4.23 µM.

What about the GI50 (MDA-MB-231 breast) of the same compound?
Its GI50 is 0.308 µM.

And the TGI (MDA-MB-231 breast)?
Its TGI is 5.09 µM.

What about the GI50 (M14 melanoma) of the same compound?
Its GI50 is 0.243 µM.

And the TGI (M14 melanoma)?
The TGI was 1.85 µM.

What about the GI50 (SW-620 colon) of the same compound?
Its GI50 is 0.891 µM.

And the TGI (SW-620 colon)?
Its TGI is 11.2 µM.

What about the GI50 (COLO 205 colon) of the same compound?
Its GI50 is 0.442 µM.

And the TGI (COLO 205 colon)?
Its TGI is 9.17 µM.

And the GI50 (DU-145 prostate)?
The GI50 was 2.93 µM.

What about the TGI (DU-145 prostate) of the same compound?
Its TGI is 13.3 µM.

What about the GI50 (UACC-257 melanoma) of the same compound?
Its GI50 is 0.519 µM.

And the TGI (UACC-257 melanoma)?
The TGI was 9.65 µM.

And the GI50 (SF-295 CNS)?
Its GI50 is 3.44 µM.

What about the TGI (SF-295 CNS) of the same compound?
Its TGI is 18.8 µM.

And the GI50 (NCI-H460 lung)?
The GI50 was 2.3 µM.

And the TGI (NCI-H460 lung)?
Its TGI is 10.2 µM.

What about the GI50 (HCT-116 colon) of the same compound?
The GI50 was 0.249 µM.

What about the TGI (HCT-116 colon) of the same compound?
The TGI was 2.11 µM.

What about the GI50 (LOX IMVI melanoma) of the same compound?
The GI50 was 0.257 µM.

What about the TGI (LOX IMVI melanoma) of the same compound?
The TGI was 1.43 µM.

What about the GI50 (K-562 leukemia) of the same compound?
The GI50 was 0.168 µM.

What about the TGI (K-562 leukemia) of the same compound?
The TGI was > 100 µM.

And the GI50 (SK-MEL-2 melanoma)?
Its GI50 is 0.328 µM.

What about the TGI (SK-MEL-2 melanoma) of the same compound?
Its TGI is 1.89 µM.

What about the GI50 (BT-549 breast) of the same compound?
The GI50 was 1.99 µM.

What about the TGI (BT-549 breast) of the same compound?
Its TGI is 6.64 µM.
